Data from ChEMBL document CHEMBL3797073 (Bioorg Med Chem, 2016).

Legend:
[1] = target: T1, Prothrombin (Homo sapiens, UniProt P00734); test: Inhibition of human thrombin at 1 ug/ml preincubated for 10 mins followed by Ac-FVR-AMC substrate addition measured within 10 mins by fluorescence assay relative to control
[2] = target: T1, Prothrombin; test: Inhibition of human thrombin preincubated for 10 mins followed by Ac-FVR-AMC substrate addition measured within 10 mins by fluorescence assay
[3] = tested on: Rattus norvegicus; test: Anticoagulant activity in Sprague-Dawley rat assessed as inhibition of arteriovenous thrombosis at 0.5 mg/ml administered 3 days prior to testing measured on day 4 relative to control; assay type: functional

SMILES	inhibition [1] [%]	IC50 ([2]; read-out: IC50) [nM]	IC50 ([2]; read-out: pIC50 (converted)) [nM]	inhibition (INH) [3] [%]
CCn1c(CNc2ccc(C(=N)N)cc2F)nc2cc(C(=O)N(CCC(=O)O)c3ccc(C)c(F)c3)ccc21	87.5	–	–	–
CCn1c(CNc2ccc(C(=N)N)cc2F)nc2cc(C(=O)N(CCC(=O)O)c3ccc(C)cc3)ccc21	88.2	–	–	–
CCn1c(CNc2ccc(C(=N)N)cc2F)nc2cc(C(=O)N(CCC(=O)O)c3ccc(C)cc3C)ccc21	91.9	7.18	7.24	–
CCn1c(CNc2ccc(C(=N)N)cc2F)nc2cc(C(=O)N(CCC(=O)O)c3cccc(C)n3)ccc21	93.6	2.16	2.14	84.66
CCn1c(CNc2ccc(C(=N)N)cc2F)nc2cc(C(=O)N(CCC(=O)O)c3ccc(F)cc3F)ccc21	92.5	3.21	3.24	76.23
CCn1c(CNc2ccc(C(=N)N)cc2F)nc2cc(C(=O)N(CCC(=O)O)c3cc(C)ccc3C)ccc21	93	5.66	5.62	–
CCn1c(CNc2ccc(C(=N)N)cc2F)nc2cc(C(=O)N(CCC(=O)O)c3cc(F)cc(F)c3)ccc21	91.2	–	–	–
CCn1c(CNc2ccc(C(=N)N)cc2F)nc2cc(C(=O)N(CCC(=O)O)c3cc(C)ccn3)ccc21	92	3.69	3.72	–
CCn1c(CNc2ccc(C(=N)N)cc2F)nc2cc(C(=O)N(CCC(=O)O)c3cccc(C)c3C)ccc21	93.2	4.92	4.9	–
CCn1c(CNc2ccc(C(=N)N)cc2F)nc2cc(C(=O)N(CCC(=O)O)c3cccc(C)c3)ccc21	92.8	5.44	5.5	–
CCn1c(CNc2ccc(C(=N)N)cc2F)nc2cc(C(=O)N(CCC(=O)O)c3c(C)cccc3C)ccc21	92.5	1.81	1.82	–
CCn1c(CNc2ccc(C(=N)N)cc2F)nc2cc(C(=O)N(CCC(=O)O)c3ccc(C)c(C)c3)ccc21	91.6	10.1	–	–
CCn1c(CNc2ccc(C(=N)N)cc2F)nc2cc(C(=O)N(CCC(=O)O)c3ccc(F)c(F)c3)ccc21	93.8	9.17	9.12	–
CCn1c(CNc2ccc(C(=N)N)cc2F)nc2cc(C(=O)N(CCC(=O)O)c3ccc(F)c(C)c3)ccc21	92.5	4.18	4.17	–
Cn1c(CNc2ccc(C(=N)N)cc2)nc2cc(C(=O)N(CCC(=O)O)c3ccccn3)ccc21 [DABIGATRAN]	–	–	–	85.07
CCn1c(CNc2ccc(C(=N)N)cc2F)nc2cc(C(=O)N(CCC(=O)O)c3cc(C)cc(C)c3)ccc21	89	–	–	–
